Measured values as given in patent publication US9458104B2 (priority 2012, dated 2016).

Key:
RORγ = molecular target: T1, RORγ (UniProt P51449); type: cell-based; settings: 293T cells, 16 h; for pIC50 (FF): firefly (FF) luciferase; for pIC50 (REN): renilla normalised (RENnorm) luciferase
T1 construct: hRORg-LBD|aa259-518|NP_005051.2; hRORgt|aa1-497|NP_001001523 (RORg, t isoform, 497aa); mRORg-LBD|aa264-516|NP_035411
T1 sequence (P51449 1-518): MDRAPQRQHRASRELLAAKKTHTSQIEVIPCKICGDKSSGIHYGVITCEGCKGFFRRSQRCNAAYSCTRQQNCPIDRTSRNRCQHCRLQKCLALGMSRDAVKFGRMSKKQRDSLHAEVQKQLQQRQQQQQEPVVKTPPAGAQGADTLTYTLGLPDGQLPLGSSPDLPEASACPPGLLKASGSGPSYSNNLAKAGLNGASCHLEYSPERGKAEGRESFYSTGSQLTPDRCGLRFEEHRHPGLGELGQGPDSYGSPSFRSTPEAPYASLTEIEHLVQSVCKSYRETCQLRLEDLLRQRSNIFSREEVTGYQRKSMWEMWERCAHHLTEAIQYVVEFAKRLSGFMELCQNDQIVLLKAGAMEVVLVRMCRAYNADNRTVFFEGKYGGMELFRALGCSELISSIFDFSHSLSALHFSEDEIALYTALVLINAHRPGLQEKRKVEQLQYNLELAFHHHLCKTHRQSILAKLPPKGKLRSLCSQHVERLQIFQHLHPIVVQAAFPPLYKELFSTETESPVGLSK

[1] = molecular target: T2, RORγ ligand binding domain (LBD) (Homo sapiens, UniProt P51449); experiment: TR-FRET Activity Assay (ligand sensing assay, RORγ-LBD / coactivator peptide interaction); type: biochemical
T2 construct: made in house; host or cells: E. coli BL-21 (BL3), vector pDEST15
T2 sequence (P51449 269-508 limits assumed): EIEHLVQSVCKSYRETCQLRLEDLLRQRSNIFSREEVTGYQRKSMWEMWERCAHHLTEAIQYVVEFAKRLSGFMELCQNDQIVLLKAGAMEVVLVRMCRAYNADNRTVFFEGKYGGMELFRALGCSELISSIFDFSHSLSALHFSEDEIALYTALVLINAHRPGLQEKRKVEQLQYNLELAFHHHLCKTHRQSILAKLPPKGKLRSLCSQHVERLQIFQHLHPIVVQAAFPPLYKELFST
Outline: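 GST-RORγ LBD expressed in bacteria, 20–60 ng/well, with biotinylated coactivator peptide 200–600 nM, streptavidin-APC and Eu-anti-GST. Buffer: 20 mM Tris-HCl pH 6.8, 60 mM KCl, 1 mM DTT, 5 mM MgCl2, BSA; 1% DMSO. LANCE TR-FRET 665/615 nm ratio; IC50 from four-parameter logistic fit.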

SMILES: Cn1c(CC2CCCCC2)c(-c2cc(C(C)(C)C)cc(C3(C)CC3)c2)c(Cl)c1C(=O)N[C@H]1C[C@H](C(=O)O)C1 [Example 20, trans-3-(4-(3-(tert-Butyl)-5-(1-methylcyclopropyl)phenyl)-3-chloro-5-(cyclohexylmethyl)-1-methyl-1H-pyrrole-2-carboxamido)cyclobutanecarboxylic acid]
- pIC50 (FF) (RORγ): 7.2
- pIC50 (REN) (RORγ): 7.3
- IC50 [1]: 3980 nM

SMILES: Cc1c(C(=O)N[C@H]2C[C@H](C(=O)O)C2)cn(-c2cc(C(C)(C)C)cc(C3(C)CC3)c2)c1SC1CCCCC1 [Example 21, trans-3-(1-(3-(tert-Butyl)-5-(1-methylcyclopropyl)phenyl)-5-(cyclohexylthio)-4-methyl-1H-pyrrole-3-carboxamido)cyclobutanecarboxylic acid]
- pIC50 (FF) (RORγ): 8.0
- pIC50 (REN) (RORγ): 8.2
- IC50 [1]: 794 nM

SMILES: Cc1c(C(=O)N[C@H]2C[C@H](C(=O)O)C2)cn(-c2cc(C(C)(C)C)cc(C3(C)CC3)c2)c1[S+]([O-])C1CCCCC1 (stereo partly drawn) [Example 22, trans-3-(1-(3-(tert-Butyl)-5-(1-methylcyclopropyl)phenyl)-5-(cyclohexylsulfinyl)-4-methyl-1H-pyrrole-3-carboxamido)cyclobutanecarboxylic acid]
- pIC50 (FF) (RORγ): 7.1
- pIC50 (REN) (RORγ): 7.1
- IC50 [1]: 2000 nM

SMILES: Cc1c(C(=O)N[C@H]2C[C@H](C(=O)O)C2)cn(-c2cc(C(C)(C)C)cc(C3(C)CC3)c2)c1S(=O)(=O)C1CCCCC1 [Example 23, trans-3-(1-(3-(tert-Butyl)-5-(1-methylcyclopropyl)phenyl)-5-(cyclohexylsulfonyl)-4-methyl-1H-pyrrole-3-carboxamido)cyclobutanecarboxylic acid]
- pIC50 (FF) (RORγ): 6.4
- pIC50 (REN) (RORγ): 6.5
- IC50 [1]: 1580 nM

SMILES: Cc1c(C(=O)NCCC(C)(C)C(=O)O)c(F)n(-c2ccc(S(=O)(=O)NC(C)(C)C)c(C(F)(F)F)c2)c1CC1CCCCC1 [Example 25, 4-(1-(4-(N-(tert-Butyl)sulfamoyl)-3-(trifluoromethyl)phenyl)-5-(cyclohexylmethyl)-2-fluoro-4-methyl-1H-pyrrole-3-carboxamido)-2,2-dimethylbutanoic acid]
- pIC50 (FF) (RORγ): 8.3
- pIC50 (REN) (RORγ): 8.3
- IC50 [1]: 631 nM

SMILES: Cn1c(C(=O)N[C@H]2C[C@H](C(=O)O)C2)cc(-c2cc(C(C)(C)C)cc(C3(C)CC3)c2)c1C(=O)C1CCCCC1 [Example 26, trans-3-(4-(3-(tert-Butyl)-5-(1-methylcyclopropyl)phenyl)-5-(cyclohexanecarbonyl)-1-methyl-1H-pyrrole-2-carboxamido)cyclobutanecarboxylic acid]
- pIC50 (FF) (RORγ): 8.5
- pIC50 (REN) (RORγ): 8.5
- IC50 [1]: 501 nM

SMILES: CC(C)(C)c1cc(-c2cc(C(=O)N[C@H]3C[C@H](C(=O)O)C3)nn2CC2CCCCC2)cc(C2(C)CC2)c1 [Example 100, (trans)-3-(5-(3-(tert-Butyl)-5-(1-methylcyclopropyl)phenyl)-1-(cyclohexylmethyl)-1H-pyrazole-3-carboxamido)cyclobutanecarboxylic acid]
- pIC50 (FF) (RORγ): 6.9
- pIC50 (REN) (RORγ): 7.0
- IC50 [1]: 501 nM

SMILES: CCNC(=O)c1cc(CC2CCCCC2)n(-c2cc(C(C)(C)C)cc(C(C)(C)C)c2)n1 [Example 102/1]
- pIC50 (FF) (RORγ): 5.9
- pIC50 (REN) (RORγ): 6.0
- IC50 [1]: 631 nM

SMILES: CC1(CNC(=O)c2nn(-c3cc(C(C)(C)C)nc(C(C)(C)C)c3)c(CC3CCCCC3)c2Cl)COC1 [Example 105, 4-Chloro-5-(cyclohexylmethyl)-1-(2,6-di-tert-butylpyridin-4-yl)-N-((3-methyloxetan-3-yl)methyl)-1H-pyrazole-3-carboxamide]
- pIC50 (FF) (RORγ): < 4.7
- pIC50 (REN) (RORγ): < 4.7
- IC50 [1]: 6310 nM

SMILES: CC(C)(C)NS(=O)(=O)c1ccc(-c2c(Cl)c(C(=O)N[C@H]3C[C@H](C(=O)O)C3)nn2CC2CCCCC2)cc1C(F)(F)F [Example 108, trans-3-(5-(4-(N-(tert-Butyl)sulfamoyl)-3-(trifluoromethyl)phenyl)-4-chloro-1-(cyclohexylmethyl)-1H-pyrazole-3-carboxamido)cyclobutanecarboxylic acid]
- pIC50 (FF) (RORγ): 6.4
- pIC50 (REN) (RORγ): 6.4
- IC50 [1]: 501 nM

SMILES: CC(C)(C)NS(=O)(=O)c1ccc(-c2c(F)c(C(=O)NCCC(C)(C)C(=O)O)nn2CC2CCCCC2)cc1C(F)(F)F [Example 109, 4-(5-(4-(N-(tert-Butyl)sulfamoyl)-3-(trifluoromethyl)phenyl)-1-(cyclohexylmethyl)-4-fluoro-1H-pyrazole-3-carboxamido)-2,2-dimethylbutanoic acid]
- pIC50 (FF) (RORγ): 6.7
- pIC50 (REN) (RORγ): 6.8
- IC50 [1]: 501 nM

SMILES: CC(C)(C)NS(=O)(=O)c1ccc(-c2cc(C(=O)N[C@H]3C[C@H](C(=O)O)C3)nn2CC2CCCCC2)c(Cl)c1Cl [Example 112, trans-3-(5-(4-(N-(tert-Butyl)sulfamoyl)-2,3-dichlorophenyl)-1-(cyclohexylmethyl)-1H-pyrazole-3-carboxamido)cyclobutanecarboxylic acid]
- pIC50 (FF) (RORγ): 6.9
- pIC50 (REN) (RORγ): 6.9
- IC50 [1]: 316 nM

SMILES: CC(C)(C)NS(=O)(=O)c1ccc(-c2cc(C(=O)NC3CCS(=O)(=O)CC3)nn2CC2CCCCC2)c(Cl)c1Cl [Example 112/1]
- pIC50 (FF) (RORγ): 7.5
- pIC50 (REN) (RORγ): 7.6
- IC50 [1]: 501 nM

SMILES: Cc1c(C(=O)N[C@H]2C[C@H](C(=O)O)C2)cn(-c2cc(C(C)(C)C)cc(C3(C)CC3)c2)c1C(=O)c1ccccc1 [Example 301, (trans)-3-(5-Benzoyl-1-(3-(tert-butyl)-5-(1-methylcyclopropyl)phenyl)-4-methyl-1H-pyrrole-3-carboxamido)cyclobutanecarboxylic acid]
- pIC50 (FF) (RORγ): 6.7
- pIC50 (REN) (RORγ): 6.8
- IC50 [1]: 501 nM

SMILES: CCS(=O)(=O)c1ccc(CNC(=O)c2cc(-c3ccc(S(=O)(=O)NC(C)(C)C)c(C(F)(F)F)c3)n(CC3CCCCC3)c2C)cc1 [Example 302, 5-(4-(N-(tert-Butyl)sulfamoyl)-3-(trifluoromethyl)phenyl)-1-(cyclohexylmethyl)-N-(4-(ethylsulfonyl)benzyl)-2-methyl-1H-pyrrole-3-carboxamide]
- pIC50 (FF) (RORγ): 7.6
- pIC50 (REN) (RORγ): 7.8
- IC50 [1]: 6.31 nM

SMILES: Cc1c(C(=O)NC2CCOCC2)cc(-c2ccc(S(=O)(=O)NC(C)(C)C)c(C(C)(C)C)c2)n1CC(C)(C)C [Example 302/1]
- pIC50 (FF) (RORγ): 6.3
- pIC50 (REN) (RORγ): 6.4
- IC50 [1]: 1580 nM

SMILES: CC(C)(C)c1cc(-c2cc(C(N)=O)[nH]c2CC2CCCCC2)cc(C(C)(C)C)c1 [Example 303, 5-(Cyclohexylmethyl)-4-(3,5-di-tert-butylphenyl)-1H-pyrrole-2-carboxamide]
- pIC50 (FF) (RORγ): < 4.7
- pIC50 (REN) (RORγ): < 4.7
- IC50 [1]: 501 nM

SMILES: Cn1c(C(N)=O)cc(-c2cc(C(C)(C)C)cc(C(C)(C)C)c2)c1CC1CCCCC1 [Example 304, 5-(Cyclohexylmethyl)-4-(3,5-di-tert-butylphenyl)-1-methyl-1H-pyrrole-2-carboxamide]
- pIC50 (FF) (RORγ): 6.1
- pIC50 (REN) (RORγ): 6.1
- IC50 [1]: 126 nM

SMILES: Cc1c(C(N)=O)cn(-c2cc(C(C)(C)C)cc(C(C)(C)C)c2)c1CC1CCCCC1 [Example 305, 5-(Cyclohexylmethyl)-1-(3,5-di-tert-butylphenyl)-4-methyl-1H-pyrrole-3-carboxamide]
- pIC50 (FF) (RORγ): 6.3
- pIC50 (REN) (RORγ): 6.3
- IC50 [1]: 200 nM
